Patent US9408850B2, “Substituted indazole derivatives active as kinase inhibitors” (NERVIANO MEDICAL SCIENCES S.R.L., priority 2011, dated 2016)

Columns and labels:
[1] = target: FLT3 cytoplasmic domain (GST fused protein) (Homo sapiens (Human), UniProt P36888); assay: Biochemical assay for inhibitors of FLT3 kinase activity; settings: 2 nM pre activated enzyme, 254 microM ATP, 60 minutes at r.t.
Procedure: FLT3 cytoplasmic domain (aa 564-993end of the 993 aminoacid long full length sequence, accession number P36888 of UniProtKB/Swiss-Prot. database) was amplified by PCR starting from a testis cDNA library and then cloned into pVL vector for expression in insect cells through the baculovirus system. The GST-FLT3 cytoplasmic domain has been expressed in Sf21 cells infected for 72 hours at 27° C. The recombinant protein has been purified by affinity on GSH-sepharose and eluted with glutathione. A further purification step has been performed on heparine sepharose. […] General Principle-A specific peptidic substrate was trans-phosphorylated by the kinase in the presence of ATP traced with 33Pγ-ATP. At the end of the phosphorylation reaction, the not reacted ATP, cold and radioactive, was captured by an excess of dowex ion exchange resin that eventually settled by gravity to the bottom of the reaction plate. The supernatant was subsequently withdrawn and transferred into a counting plate that was then evaluated by β-counting. • ii. Dowex resin preparation-500 g of wet resin (SIGMA, custom prepared resin DOWEX 1×8 200-400 mesh, 2.5 Kg) were weighed out and diluted to 2 L in 150 mM sodium formate, pH 3.00. The resin was allowed to settle down overnight and then the supernatant was discarded. After three washes as above over a couple of days, the resin was allowed to settle and two volumes (with respect to the resin volume) were added of 150 mM sodium formate buffer. Biochemical Assay for Inhibitors of FLT3 Kinase Activity • i. Enzyme-The assay was performed using FLT3 cytoplasmic domain product and purified in house as GST fused protein. […] NO: 1). The peptide was purchased from American Peptide Company (Sunnyvale, Calif.). Biochemical Assay for Inhibitors of KIT Kinase Activity • i. Enzyme-The assay has been performed using KIT cytoplasmic domain product and purified in house as GST fused protein. […] NO: 2). The peptide was purchased from American Peptide Company (Sunnyvale, Calif.). Compound Testing • i. […] An automated station for serial dilutions (Biomek FX, Beckman) was used for producing 1:3 dilutions in 100% DMSO, from line A1 to A10, and for all the compounds in the column. […] The following dispensation into the plates plus 3 cycles of mixing, done by the robot itself, started the kinase reaction. At this point, the correct concentrations were restored for all the reagents. The robot incubated the plates for 60 minutes at r.t., and then stopped the reaction by pipetting 60 microL of dowex resin suspension into the reaction mix. In order to avoid tip clogging, wide bore tips were used to dispense the resin suspension. Three cycles of mixing were done immediately after the addition of the resin. Another mixing cycle was performed after all the plates were stopped, this time using normal tips: the plates were then allowed to rest for about one hour in order to allow resin sedimentation. […] Data Fitting-Data were analyzed by an internally customized version of the SW package “Assay Explorer” that provided sigmoidal fitting of the ten-dilutions curves for IC50 determination in the secondary assays/hit confirmation routines. Cell-Based Assays for Inhibitors of FLT3 Kinase Activity In vitro Cell Proliferation Assay for Inhibitors of FLT3 Kinase Activity

[2] = test system: MOLM-13 cells, bearing a FLT3-ITD mutation; assay: In vitro cell proliferation assay (CellTiter-Glo), MOLM-13; type: cell-based; settings: Homo sapiens, MOLM-13, 72 h
Procedure: (§1) The human acute leukemia MOLM-13 AND MV-4-11 cells, bearing a FLT3-ITD mutation, were seeded (5000 cells/well) in white 384 well-plates in complete medium (RPMI 1640 plus 10% Fetal bovine serum) and treated with compounds dissolved in 0.1% DMSO, 24 h after seeding. The cells were incubated at 37° C. and 5% CO2 and after 72 h the plates were processed using CellTiter-Glo assay (Promega) following the manufacturer's instruction.
(§2) CellTiter-Glo is a homogenous method based on the quantification of the ATP present, an indicator of metabolitically active cells. ATP was quantified using a system based on luciferase and D-luciferin resultant into light generation. The luminescent signal was proportional to the number of cells present in culture.
(§3) Briefly, 25 microL/well reagent solution were added to each well and, after 5 minutes shaking, microplates were read by Envision (PerkinElmer) luminometer. Inhibitory activity was evaluated comparing treated versus control data using Symyx Assay Explorer (Symyx Technologies Inc.) program. IC50 was calculated using sigmoidal interpolation curve.

[3] = test system: MV-4-11 cells, bearing a FLT3-ITD mutation; assay: In vitro cell proliferation assay (CellTiter-Glo), MV-4-11; type: cell-based; settings: Homo sapiens, MV4-11, MV-4-11, 72 h
Procedure: as §1, §2, §3

[4] = target: KIT cytoplasmic domain (GST fused protein) (Homo sapiens (Human), UniProt P10721); assay: Biochemical assay for inhibitors of KIT kinase activity; settings: 4 nM pre activated enzyme, 4.4 microM ATP, 60 minutes at r.t.
Sequence of KIT cytoplasmic domain (GST fused protein) (P10721 544-976): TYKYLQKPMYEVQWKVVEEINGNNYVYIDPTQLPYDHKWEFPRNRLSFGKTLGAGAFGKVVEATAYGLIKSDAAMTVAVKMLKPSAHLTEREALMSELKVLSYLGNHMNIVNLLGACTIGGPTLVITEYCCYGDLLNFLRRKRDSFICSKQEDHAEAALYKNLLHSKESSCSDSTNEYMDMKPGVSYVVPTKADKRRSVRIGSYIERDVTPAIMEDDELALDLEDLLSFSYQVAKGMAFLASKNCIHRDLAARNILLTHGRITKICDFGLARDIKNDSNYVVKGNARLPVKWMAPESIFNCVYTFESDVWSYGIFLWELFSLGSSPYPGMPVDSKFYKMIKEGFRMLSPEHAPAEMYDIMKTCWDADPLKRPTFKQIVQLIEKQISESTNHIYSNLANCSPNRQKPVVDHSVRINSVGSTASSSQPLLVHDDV
Procedure: KIT cytoplasmic domain (aa 544-976end of the 976 aminoacid long full length sequence, accession number P10721 of UniProtKB/Swiss-Prot database) was cloned into pVL vector for expression in insect cells through the baculovirus system. The GST-KIT cytoplasmic domain has been expressed in Sf21 cells infected for 66 hrs at 27° C. The recombinant protein has been purified by affinity on GSH-sepharose and eluted with glutathione. […] General Principle-A specific peptidic substrate was trans-phosphorylated by the kinase in the presence of ATP traced with 33Pγ-ATP. At the end of the phosphorylation reaction, the not reacted ATP, cold and radioactive, was captured by an excess of dowex ion exchange resin that eventually settled by gravity to the bottom of the reaction plate. The supernatant was subsequently withdrawn and transferred into a counting plate that was then evaluated by β-counting. • ii. Dowex resin preparation-500 g of wet resin (SIGMA, custom prepared resin DOWEX 1×8 200-400 mesh, 2.5 Kg) were weighed out and diluted to 2 L in 150 mM sodium formate, pH 3.00. The resin was allowed to settle down overnight and then the supernatant was discarded. After three washes as above over a couple of days, the resin was allowed to settle and two volumes (with respect to the resin volume) were added of 150 mM sodium formate buffer. Biochemical Assay for Inhibitors of FLT3 Kinase Activity • i. Enzyme-The assay was performed using FLT3 cytoplasmic domain product and purified in house as GST fused protein. […] The peptide was purchased from American Peptide Company (Sunnyvale, Calif.). Biochemical Assay for Inhibitors of KIT Kinase Activity • i. Enzyme-The assay has been performed using KIT cytoplasmic domain product and purified in house as GST fused protein. […] NO: 2). The peptide was purchased from American Peptide Company (Sunnyvale, Calif.). Compound Testing • i. […] An automated station for serial dilutions (Biomek FX, Beckman) was used for producing 1:3 dilutions in 100% DMSO, from line A1 to A10, and for all the compounds in the column. […] The following dispensation into the plates plus 3 cycles of mixing, done by the robot itself, started the kinase reaction. At this point, the correct concentrations were restored for all the reagents. The robot incubated the plates for 60 minutes at r.t., and then stopped the reaction by pipetting 60 microL of dowex resin suspension into the reaction mix. In order to avoid tip clogging, wide bore tips were used to dispense the resin suspension. Three cycles of mixing were done immediately after the addition of the resin. Another mixing cycle was performed after all the plates were stopped, this time using normal tips: the plates were then allowed to rest for about one hour in order to allow resin sedimentation. […] Data Fitting-Data were analyzed by an internally customized version of the SW package “Assay Explorer” that provided sigmoidal fitting of the ten-dilutions curves for IC50 determination in the secondary assays/hit confirmation routines. Cell-Based Assays for Inhibitors of FLT3 Kinase Activity In vitro Cell Proliferation Assay for Inhibitors of FLT3 Kinase Activity

Sequence of FLT3 cytoplasmic domain (GST fused protein) (P36888 564-993): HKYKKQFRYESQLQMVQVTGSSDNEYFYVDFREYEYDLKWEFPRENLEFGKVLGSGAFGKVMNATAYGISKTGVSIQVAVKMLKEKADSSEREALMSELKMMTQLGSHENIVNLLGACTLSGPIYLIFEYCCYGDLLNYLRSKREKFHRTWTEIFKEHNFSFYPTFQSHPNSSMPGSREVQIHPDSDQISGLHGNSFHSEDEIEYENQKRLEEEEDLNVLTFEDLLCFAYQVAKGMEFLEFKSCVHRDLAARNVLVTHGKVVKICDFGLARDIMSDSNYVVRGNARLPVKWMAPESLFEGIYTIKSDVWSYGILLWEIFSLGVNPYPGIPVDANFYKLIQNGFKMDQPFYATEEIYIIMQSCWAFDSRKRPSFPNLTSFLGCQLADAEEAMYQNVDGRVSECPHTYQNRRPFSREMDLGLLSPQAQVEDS

IC50 [1] [nM] | IC50 [4] [nM] | SMILES | IC50 [2] [nM] | IC50 [3] [nM]
974 | > 10000 | CN1CCN(c2ccc(C(=O)Nc3n[nH]c4cc(Oc5ccc(OCc6ccccc6)cc5)ccc34)cc2)CC1 [Cpd. 4, N-[6-(4-Benzyloxy-phenoxy)-1H-indazol-3-yl]-4-(4-methyl-piperazin-1-yl)-benzamide] |  | 
1170 | 2620 | CN1CCN(c2ccc(C(=O)Nc3n[nH]c4cc(OCc5cccc(Oc6ccccc6)c5)ccc34)cc2)CC1 [Cpd. 5, 4-(4-Methyl-piperazin-1-yl)-N-[6-(3-phenoxy-benzyloxy)-1H-indazol-3-yl]-benzamide] |  | 
639 | 564 | CN1CCN(c2ccc(C(=O)Nc3n[nH]c4cc(Oc5cccc(F)c5)ccc34)cc2)CC1 [Cpd. 3, N-[6-(3-Fluoro-phenoxy)-1H-indazol-3-yl]-4-(4-methyl-piperazin-1-yl)-benzamide] |  | 
62 | 528 | CN1CCN(c2ccc(C(=O)Nc3n[nH]c4cc(OC/C=C/c5ccccc5)ccc34)cc2)CC1 [Cpd. 39, 4-(4-Methyl-piperazin-1-yl)-N-[6-((E)-3-phenyl-allyloxy)-1H-indazol-3-yl]-benzamide] |  | 
62 | 146 | CN(C)CCCN(C)c1ccc(C(=O)Nc2n[nH]c3cc(OCCOCc4ccccc4)ccc23)cc1 [Cpd. 17, N-[6-(2-Benzyloxy-ethoxy)-1H-indazol-3-yl]-4-[(3-dimethylamino-propyl)-methyl-amino]-benzamide] |  | 
136 | 306 | O=C(Nc1n[nH]c2cc(OCCOCc3ccccc3)ccc12)c1ccc(N2CC(N3CCCC3)C2)cc1 [Cpd. 28, N-[6-(2-Benzyloxy-ethoxy)-1H-indazol-3-yl]-4-(3-pyrrolidin-1-yl-azetidin-1-yl)-benzamide] |  | 
< 50 | 91 | CN1CCC(CNc2ccc(C(=O)Nc3n[nH]c4cc(OCCOCc5ccccc5)ccc34)cc2)CC1 [Cpd. 27, N-[6-(2-Benzyloxy-ethoxy)-1H-indazol-3-yl]-4-[(1-methyl-piperidin-4-ylmethyl)-amino]-benzamide] |  | 
56 | 58 | CN1CCN(c2ccc(C(=O)Nc3n[nH]c4cc(OCCOCc5cccc(C(F)(F)F)c5)ccc34)cc2)CC1 [Cpd. 34, 4-(4-Methyl-piperazin-1-yl)-N-{6-[2-(3-trifluoromethyl-benzyloxy)-ethoxy]-1H-indazol-3-yl}-benzamide] |  | 

SMILES | IC50 [1] [nM] | IC50 [4] [nM] | IC50 [2] [nM] | IC50 [3] [nM]
O=C(Nc1n[nH]c2cc(OCCOCc3ccccc3)ccc12)c1ccc(N2CCOCC2)cc1 [Cpd. 24, N-[6-(2-Benzyloxy-ethoxy)-1H-indazol-3-yl]-4-morpholin-4-yl-benzamide] | 162 | 260 | < 50 | < 50
O=C(Nc1n[nH]c2cc(OCCOCc3ccccc3)ccc12)c1ccc(N2CCNCC2)cc1 [Cpd. 20, N-[6-(2-Benzyloxy-ethoxy)-1H-indazol-3-yl]-4-piperazin-1-yl-benzamide] | < 50 | 52 | < 50 | < 50
CN1CCN(c2ccc(C(=O)Nc3n[nH]c4cc(OCCOCc5ccccc5F)ccc34)cc2)CC1 [Cpd. 30, N-{6-[2-(2-Fluoro-benzyloxy)-ethoxy]-1H-indazol-3-yl}-4-(4-methyl-piperazin-1-yl)-benzamide] | 166 | 1400 | < 50 | < 50
CN(c1ccc(C(=O)Nc2n[nH]c3cc(OCCOCc4ccccc4)ccc23)cc1)C1CC[N+](C)([O-])CC1 (stereo not shown) [Cpd. 41, N-[6-(2-Benzyloxy-ethoxy)-1H-indazol-3-yl]-4-[methyl-(1-methyl-1-oxy-piperidin-4-yl)-amino]-benzamide] | 52 | 180 | < 50 | < 50
O=C(Nc1n[nH]c2cc(OCCOCc3ccccc3)ccc12)c1ccc(NC2CCOCC2)cc1 [Cpd. 26, N-[6-(2-Benzyloxy-ethoxy)-1H-indazol-3-yl]-4-(tetrahydro-pyran-4-ylamino)-benzamide] | 90 | 124 | < 50 | < 50
CN1CCN(c2ccc(C(=O)Nc3n[nH]c4cc(OCCOCc5ccncc5)ccc34)cc2)CC1 [Cpd. 35, 4-(4-Methyl-piperazin-1-yl)-N-{6-[2-(pyridin-4-ylmethoxy)-ethoxy]-1H-indazol-3-yl}-benzamide] | 1180 | 2370 | < 50 | < 50
CN(C)Cc1ccc(C(=O)Nc2n[nH]c3cc(OCCOCc4ccccc4)ccc23)cc1 [Cpd. 21, N-[6-(2-Benzyloxy-ethoxy)-1H-indazol-3-yl]-4-dimethylaminomethyl-benzamide] | 104 | 134 |  | < 50
